Assay results published in ChEMBL document CHEMBL5034001 (J Med Chem, 2021).
Active and inactive are the calls of the source. The rule behind the calls is not given here.

What was measured:
[1] = target: ALK tyrosine kinase receptor (Homo sapiens, UniProt Q9UM73); assay: Induction of ALK degradation in human SR cells at 100 nM pretreated with proteosome inhibitor MG132 for 4 hrs followed by compound addition and measured after 16 hrs by Western blot analysis; format: cell-based
[2] = target: Signal transducer and activator of transcription 3 (Homo sapiens) (UniProt P40763); assay: Inhibition of STAT3 downstream signalling in human SR cells assessed as reduction in pSTAT3 level at 10 nM by Western blot analysis; format: cell-based
Sequence of Signal transducer and activator of transcription 3 (Homo sapiens) (P40763 whole entry): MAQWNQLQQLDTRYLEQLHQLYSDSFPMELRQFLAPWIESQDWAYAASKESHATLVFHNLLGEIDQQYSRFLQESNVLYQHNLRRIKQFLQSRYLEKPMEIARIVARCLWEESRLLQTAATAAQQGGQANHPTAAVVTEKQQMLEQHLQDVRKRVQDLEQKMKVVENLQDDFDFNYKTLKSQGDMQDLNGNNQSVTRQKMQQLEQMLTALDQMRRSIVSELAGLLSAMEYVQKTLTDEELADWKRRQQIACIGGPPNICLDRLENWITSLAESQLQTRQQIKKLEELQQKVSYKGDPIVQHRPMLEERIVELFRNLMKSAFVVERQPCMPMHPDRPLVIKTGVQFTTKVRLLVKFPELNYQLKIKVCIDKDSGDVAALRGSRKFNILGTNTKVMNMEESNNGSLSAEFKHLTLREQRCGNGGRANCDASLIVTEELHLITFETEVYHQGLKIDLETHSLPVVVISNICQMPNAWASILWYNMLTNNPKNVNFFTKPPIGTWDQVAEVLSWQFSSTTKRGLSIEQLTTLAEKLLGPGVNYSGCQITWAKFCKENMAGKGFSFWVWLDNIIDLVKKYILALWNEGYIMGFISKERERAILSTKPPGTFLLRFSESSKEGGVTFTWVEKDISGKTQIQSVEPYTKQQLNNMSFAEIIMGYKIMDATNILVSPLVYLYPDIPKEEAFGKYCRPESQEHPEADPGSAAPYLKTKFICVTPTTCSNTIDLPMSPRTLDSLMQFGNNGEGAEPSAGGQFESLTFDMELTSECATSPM

[3] = target: Signal transducer and activator of transcription 3 (Homo sapiens) (UniProt P40763); assay: Inhibition of STAT3 downstream signalling in human NCI-H2228 cells assessed as reduction in pSTAT3 level at 1 to 1000 nM by Western blot analysis; format: cell-based; conditions: dose 1-1000 nM
[4] = test system: ALK tyrosine kinase receptor (Homo sapiens), Q9UM73 [G1202R]; assay: Induction of […] G1202R mutant degradation in human […] at 100 nM by Western blot analysis; format: cell-based
[5] = target: ALK tyrosine kinase receptor (Homo sapiens, UniProt Q9UM73, G1202R); assay: Binding affinity to ALK G1202R mutant (unknown origin)
SR [6] = assay: Induction of G1 cell cycle arrest in human SR cells at 100 nM after 24 to 48 hrs; format: functional, cell-based; conditions: time 24-48 hrs
MDA-MB-231 = assay: Induction of G1 cell cycle arrest in human MDA-MB-231 cells at 100 nM after 24 to 48 hrs; format: functional, cell-based; conditions: time 24-48 hrs
Calu-1 [7] = assay: Induction of apoptosis in human Calu-1 cells at 100 nM after 72 hrs; format: functional, cell-based
Calu-1 [8] = assay: Inhibition of cell invasion in human Calu-1-GFP cells at 100 nM after 24 hrs by transwell invasion assay; format: functional, cell-based
NCI-H2228 = assay: Down regulation of FAK in human NCI-H2228 cells at 1 to 1000 nM after 16 hrs by Western blot analysis; format: functional, cell-based; conditions: dose 1-1000 nM
A549 [9] = assay: Down regulation of FAK in human A549 cells at 1 to 1000 nM after 16 hrs by Western blot analysis; format: functional, cell-based; conditions: dose 1-1000 nM
A549 [10] = assay: Down regulation of RSK1 in human A549 cells at 1 to 1000 nM after 16 hrs by Western blot analysis; format: functional, cell-based; conditions: dose 1-1000 nM
SR [11] = assay: Down regulation of FER in human SR cells at 0.1 to 1000 nM after 16 hrs by Western blot analysis; format: functional, cell-based; conditions: dose 0.1-1000 nM
[12] = target: Protein-tyrosine kinase 2-beta (Homo sapiens) (UniProt Q14289); assay: Induction of PYK2 degradation in human SR cells at 1 nM after 16 hrs by Western blot analysis; format: cell-based
Sequence of Protein-tyrosine kinase 2-beta (Homo sapiens) (Q14289 whole entry, looked up, the tested form may be a part): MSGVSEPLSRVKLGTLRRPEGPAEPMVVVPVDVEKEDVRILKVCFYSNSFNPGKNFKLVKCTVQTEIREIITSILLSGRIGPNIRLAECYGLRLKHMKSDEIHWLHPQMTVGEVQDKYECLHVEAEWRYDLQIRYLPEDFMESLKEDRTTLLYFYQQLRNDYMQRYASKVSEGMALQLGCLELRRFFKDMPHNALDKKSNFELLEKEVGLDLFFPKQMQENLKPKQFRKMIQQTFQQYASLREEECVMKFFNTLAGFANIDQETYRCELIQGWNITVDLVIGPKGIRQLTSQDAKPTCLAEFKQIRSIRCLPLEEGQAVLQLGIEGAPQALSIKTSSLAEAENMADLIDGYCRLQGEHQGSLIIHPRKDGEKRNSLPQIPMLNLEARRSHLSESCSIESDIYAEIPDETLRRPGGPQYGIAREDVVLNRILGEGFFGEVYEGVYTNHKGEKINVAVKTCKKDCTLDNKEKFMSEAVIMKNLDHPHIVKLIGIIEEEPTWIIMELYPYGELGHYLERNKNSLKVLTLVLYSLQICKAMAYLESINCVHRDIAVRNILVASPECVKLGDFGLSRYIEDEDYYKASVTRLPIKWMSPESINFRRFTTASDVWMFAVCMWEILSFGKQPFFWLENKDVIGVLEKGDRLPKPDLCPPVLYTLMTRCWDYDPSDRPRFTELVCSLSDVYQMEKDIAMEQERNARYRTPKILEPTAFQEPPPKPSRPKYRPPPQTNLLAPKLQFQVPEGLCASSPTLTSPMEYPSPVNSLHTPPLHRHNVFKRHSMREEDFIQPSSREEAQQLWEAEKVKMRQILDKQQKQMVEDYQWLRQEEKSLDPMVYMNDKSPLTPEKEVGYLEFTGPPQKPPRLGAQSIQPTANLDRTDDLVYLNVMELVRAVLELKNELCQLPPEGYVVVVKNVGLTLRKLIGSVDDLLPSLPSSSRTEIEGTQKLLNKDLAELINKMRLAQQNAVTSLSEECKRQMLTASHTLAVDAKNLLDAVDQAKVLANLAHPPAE

[13] = target: Focal adhesion kinase 1 (Homo sapiens) (UniProt Q05397); assay: Induction of FAK degradation in human Calu-1 cells at 1 nM after 16 hrs by Western blot analysis; format: cell-based
Sequence of Focal adhesion kinase 1 (Homo sapiens) (Q05397 2-1052 limits assumed): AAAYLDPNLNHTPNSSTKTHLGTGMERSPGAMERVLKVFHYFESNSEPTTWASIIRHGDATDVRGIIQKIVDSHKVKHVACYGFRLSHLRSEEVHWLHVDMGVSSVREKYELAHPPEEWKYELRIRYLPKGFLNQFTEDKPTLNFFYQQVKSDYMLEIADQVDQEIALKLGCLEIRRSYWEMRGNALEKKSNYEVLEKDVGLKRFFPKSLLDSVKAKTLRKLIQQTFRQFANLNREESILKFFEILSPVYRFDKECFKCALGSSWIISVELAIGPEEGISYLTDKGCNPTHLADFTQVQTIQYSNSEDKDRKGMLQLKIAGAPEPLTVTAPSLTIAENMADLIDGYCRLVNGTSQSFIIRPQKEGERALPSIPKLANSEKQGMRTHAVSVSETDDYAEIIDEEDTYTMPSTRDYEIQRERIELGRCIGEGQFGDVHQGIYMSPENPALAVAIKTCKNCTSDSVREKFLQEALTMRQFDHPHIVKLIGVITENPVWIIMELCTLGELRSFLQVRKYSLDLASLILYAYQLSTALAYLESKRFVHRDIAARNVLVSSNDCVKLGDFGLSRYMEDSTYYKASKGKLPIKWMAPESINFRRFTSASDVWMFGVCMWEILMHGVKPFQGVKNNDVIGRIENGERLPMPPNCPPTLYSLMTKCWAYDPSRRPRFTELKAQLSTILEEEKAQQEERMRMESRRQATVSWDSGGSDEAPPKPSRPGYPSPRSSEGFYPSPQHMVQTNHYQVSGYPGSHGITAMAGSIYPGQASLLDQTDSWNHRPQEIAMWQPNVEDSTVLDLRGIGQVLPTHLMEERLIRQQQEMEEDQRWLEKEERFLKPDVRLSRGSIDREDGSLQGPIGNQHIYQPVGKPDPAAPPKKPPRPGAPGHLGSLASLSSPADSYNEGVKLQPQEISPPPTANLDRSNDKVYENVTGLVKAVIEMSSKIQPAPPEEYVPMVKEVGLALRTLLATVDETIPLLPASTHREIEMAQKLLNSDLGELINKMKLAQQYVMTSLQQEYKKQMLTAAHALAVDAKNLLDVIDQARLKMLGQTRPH

[14] = target: Focal adhesion kinase 1 (Homo sapiens) (UniProt Q05397); assay: Induction of FAK degradation in human MDA-MB-231 cells at 10 nM treated for 16 hrs followed by compound washout and measured after 48 hrs by Western blot analysis; format: cell-based
Calu-1 [15] = assay: Down regulation of cyclin D1 protein expression in human Calu-1 cells at 1 to 500 nM after 48 hrs by Western blot analysis; format: functional, cell-based; conditions: dose 1-500 nM
[16] = target: Serine/threonine-protein kinase Chk2 (Homo sapiens) (UniProt O96017); assay: Binding affinity to wild-type human partial length CHEK2 (S253 to E574 residues) expressed in bacterial expression system assessed as residual binding level at 100 nM by Kinomescan method relative to control
[17] = test system: Receptor-type tyrosine-protein kinase FLT3 (Homo sapiens), P36888 [D835V]; assay: Binding affinity to human partial length FLT3 D835V mutant (V592 to Y969 residues) expressed in bacterial expression system assessed as residual binding level at 100 nM by Kinomescan method relative to control
[18] = test system: Receptor-type tyrosine-protein kinase FLT3 (Homo sapiens), P36888 [UNDEFINED MUTATION]; assay: Binding affinity to human partial length FLT3 ITD/D835V double mutant expressed in bacterial expression system assessed as residual binding level at 100 nM by Kinomescan method relative to control
[19] = target: Cyclin-G-associated kinase (Homo sapiens) (UniProt O14976); assay: Binding affinity to wild-type human partial length GAK (G13 to Y338 residues) expressed in bacterial expression system assessed as residual binding level at 100 nM by Kinomescan method relative to control
[20] = target: Activated CDC42 kinase 1 (Homo sapiens) (UniProt Q07912); assay: Binding affinity to wild-type human partial length TNK2 (S159 to D474 residues) expressed in bacterial expression system assessed as residual binding level at 100 nM by Kinomescan method relative to control
[21] = target: Ribosomal protein S6 kinase alpha-3 (Homo sapiens) (UniProt P51812); assay: Binding affinity to wild-type human partial length N- terminal RSK2 kinase domain 1 (M1 to D394 residues) expressed in mammalian expression system assessed as residual binding level at 100 nM by Kinomescan method relative to control
Sequence of Ribosomal protein S6 kinase alpha-3 (Homo sapiens) (P51812 whole entry, the tested form may be a part): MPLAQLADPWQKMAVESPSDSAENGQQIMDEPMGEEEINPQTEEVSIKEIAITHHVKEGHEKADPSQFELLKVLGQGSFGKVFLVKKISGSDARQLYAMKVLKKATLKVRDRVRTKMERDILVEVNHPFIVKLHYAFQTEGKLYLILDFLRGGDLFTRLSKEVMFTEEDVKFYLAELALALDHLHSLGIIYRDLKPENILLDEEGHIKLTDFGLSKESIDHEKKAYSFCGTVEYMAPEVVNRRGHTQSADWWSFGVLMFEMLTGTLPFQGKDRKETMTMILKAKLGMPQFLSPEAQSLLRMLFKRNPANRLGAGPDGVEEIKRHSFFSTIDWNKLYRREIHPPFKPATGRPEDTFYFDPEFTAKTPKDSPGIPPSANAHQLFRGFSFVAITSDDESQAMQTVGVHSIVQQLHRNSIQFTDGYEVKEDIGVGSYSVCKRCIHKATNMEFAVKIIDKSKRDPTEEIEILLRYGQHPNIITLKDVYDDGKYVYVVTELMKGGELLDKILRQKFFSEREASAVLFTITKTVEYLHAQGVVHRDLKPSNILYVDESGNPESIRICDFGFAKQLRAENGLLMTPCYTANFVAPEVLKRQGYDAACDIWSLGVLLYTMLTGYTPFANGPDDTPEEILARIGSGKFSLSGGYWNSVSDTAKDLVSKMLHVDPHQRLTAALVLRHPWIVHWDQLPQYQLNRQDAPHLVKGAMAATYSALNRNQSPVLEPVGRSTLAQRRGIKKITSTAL

[22] = target: Focal adhesion kinase 1 (Homo sapiens) (UniProt Q05397); assay: Binding affinity to wild-type human partial length FAK (D402 to R696 residues) expressed in bacterial expression system assessed as residual binding level at 100 nM by Kinomescan method relative to control
[23] = target: Protein-tyrosine kinase 2-beta (Homo sapiens) (UniProt Q14289); assay: Binding affinity to wild-type human full length PYK2 (M1 to E967 residues) expressed in bacterial expression system assessed as residual binding level at 100 nM by Kinomescan method relative to control
[24] = test system: Epidermal growth factor receptor (Homo sapiens), P00533 [T790M]; assay: Binding affinity to human partial length EGFR T790M mutant (R669 to G1022 residues) expressed in mammalian expression system assessed as residual binding level at 100 nM by Kinomescan method relative to control
[25] = test system: Epidermal growth factor receptor (Homo sapiens), P00533 [UNDEFINED MUTATION]; assay: Binding affinity to human partial length EGFR L747-E749del/A750P mutant expressed in bacterial expression system assessed as residual binding level at 100 nM by Kinomescan method relative to control
[26] = test system: Receptor-type tyrosine-protein kinase FLT3 (Homo sapiens), P36888 [D835Y]; assay: Binding affinity to human partial length FLT3 D835Y mutant (Q580 to Y969 residues) expressed in bacterial expression system assessed as residual binding level at 100 nM by Kinomescan method relative to control
[27] = target: NUAK family SNF1-like kinase 2 (Homo sapiens) (UniProt Q9H093); assay: Binding affinity to wild-type human partial length SNARK (P22 to A333 residues) expressed in mammalian expression system assessed as residual binding level at 100 nM by Kinomescan method relative to control
Sequence of NUAK family SNF1-like kinase 2 (Homo sapiens) (Q9H093 whole entry, the tested form may be a part): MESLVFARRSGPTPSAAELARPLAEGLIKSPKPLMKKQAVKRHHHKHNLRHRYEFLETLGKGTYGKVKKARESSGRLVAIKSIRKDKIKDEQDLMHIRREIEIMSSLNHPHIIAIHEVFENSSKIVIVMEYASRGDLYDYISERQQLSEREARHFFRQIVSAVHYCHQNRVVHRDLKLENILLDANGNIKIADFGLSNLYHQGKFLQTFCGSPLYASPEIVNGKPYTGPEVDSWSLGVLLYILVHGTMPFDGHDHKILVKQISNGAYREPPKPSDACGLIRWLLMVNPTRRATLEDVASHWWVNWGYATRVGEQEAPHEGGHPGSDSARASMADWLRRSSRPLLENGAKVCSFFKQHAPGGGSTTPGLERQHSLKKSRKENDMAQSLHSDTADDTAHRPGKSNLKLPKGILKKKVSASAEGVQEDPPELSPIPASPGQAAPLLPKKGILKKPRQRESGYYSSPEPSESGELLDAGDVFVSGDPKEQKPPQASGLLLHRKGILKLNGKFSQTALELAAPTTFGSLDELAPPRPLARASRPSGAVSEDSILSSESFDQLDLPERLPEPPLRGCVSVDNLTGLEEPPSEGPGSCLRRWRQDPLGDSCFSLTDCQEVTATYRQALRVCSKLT

[28] = target: Tyrosine-protein kinase receptor UFO (Homo sapiens) (UniProt P30530); assay: Binding affinity to wild-type human partial length AXL (R497 to Y821 residues) expressed in bacterial expression system assessed as residual binding level at 100 nM by Kinomescan method relative to control
Sequence of Tyrosine-protein kinase receptor UFO (Homo sapiens) (P30530 whole entry, the tested form may be a part): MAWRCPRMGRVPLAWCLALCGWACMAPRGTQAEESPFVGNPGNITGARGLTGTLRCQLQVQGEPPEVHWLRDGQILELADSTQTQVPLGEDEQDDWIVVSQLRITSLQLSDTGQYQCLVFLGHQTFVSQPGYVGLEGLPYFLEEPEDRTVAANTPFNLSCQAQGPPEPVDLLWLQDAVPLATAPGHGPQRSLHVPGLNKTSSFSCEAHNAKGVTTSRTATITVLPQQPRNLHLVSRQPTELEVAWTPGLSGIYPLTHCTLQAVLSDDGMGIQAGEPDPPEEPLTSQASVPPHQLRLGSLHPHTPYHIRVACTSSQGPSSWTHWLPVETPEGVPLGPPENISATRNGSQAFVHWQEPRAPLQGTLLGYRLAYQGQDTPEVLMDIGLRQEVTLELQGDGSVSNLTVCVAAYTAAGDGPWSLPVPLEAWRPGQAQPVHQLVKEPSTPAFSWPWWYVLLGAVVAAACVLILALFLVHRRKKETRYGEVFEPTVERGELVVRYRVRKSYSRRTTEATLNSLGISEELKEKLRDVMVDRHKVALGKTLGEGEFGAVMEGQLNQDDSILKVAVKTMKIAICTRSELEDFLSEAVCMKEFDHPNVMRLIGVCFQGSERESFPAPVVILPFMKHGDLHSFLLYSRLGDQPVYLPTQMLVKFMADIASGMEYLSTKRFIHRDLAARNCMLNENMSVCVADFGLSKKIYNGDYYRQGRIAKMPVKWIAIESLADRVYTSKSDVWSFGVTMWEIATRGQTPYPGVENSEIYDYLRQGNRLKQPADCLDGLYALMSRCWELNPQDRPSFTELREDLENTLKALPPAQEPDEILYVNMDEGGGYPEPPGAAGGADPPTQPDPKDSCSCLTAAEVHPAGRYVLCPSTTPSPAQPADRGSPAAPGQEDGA

[29] = Metabolic stability in human liver microsomes assessed as half life preincubated for 10 mins followed by NADPH regenerating system addition and measured after 10 mins by LC-MS/MS analysis; format: ADME, Microsome
[30] = Toxicity in NU/NU mouse at 100 mg/kg; format: organism-based; conditions: in vivo

For COc1cc(N2CCC(N3CCN(C(=O)CNc4cccc5c4C(=O)N(C4CCC(=O)NC4=O)C5=O)CC3)CC2)ccc1Nc1ncc(Cl)c(Nc2ccccc2P(C)(C)=O)n1 (configuration not stated), the Activity [1] was “inactive”, the inhibition [2] was “Active” and the inhibition [3] was “inactive”. For the same compound, the Activity [4] was “Active”, the IC50 [5] was 6.6 nM and the Activity (SR [6]) was “Active”. For the same compound, the Activity (MDA-MB-231) was “Active”, the Activity (Calu-1 [7]) was “inactive” and the inhibition (Calu-1 [8]) was “Active”. The Activity (NCI-H2228) was “Active”, the Activity (A549 [9]) was “Active” and the Activity (A549 [10]) was “Active”. For the same compound, the Activity (SR [11]) was “Active”, the Activity [12] was “Active” and the Activity [13] was “Active”. For the same compound, the Activity [14] was “inactive”, the Activity (Calu-1 [15]) was “Active” and the Activity [16] was 0%. It also gave an Activity [17] of 0%, an Activity [18] of 1% and an Activity [19] of 1.4%. It also gave an Activity [20] of 2%, an Activity [21] of 2.1% and an Activity [22] of 2.5%. For the same compound, the Activity [23] was 3.5%, the Activity [24] was 5.7% and the Activity [25] was 6.9%. For the same compound, the Activity [26] was 8.2%, the Activity [27] was 8.3% and the Activity [28] was 9.5%. For the same compound, the half-life [29] was 4.65 h and the Activity [30] was “Non-Toxic”.
